Tests used:
HES2-VCMs = details: H2O2 100 μM, 30 minutes, 37° C.; ratio before stress 1.146
Method: Mitochondrial membrane potential in HES2-VCMs was measured with the potential-sensitive dye JC-1 (Invitrogen). LV-MLC2v-Tdtomato-T2A-Zeo transduced and Zeo-selected HES2-VCMs (30- to 50-day-old) were incubated at 37° C. with 0.5 μM JC-1 in serum free DMEM medium for 15 minutes. To simulate metabolic oxidative stress, hES2-VCMs were treated with hydrogen peroxide (H2O2; 100 μM) for 30 minutes at 37° C., after which JC-1 orange and green fluorescence intensities were measured for mitochondrial membrane potential with a LSM Carl Zeiss 510 Meta microscope.

Wnt/β-catenin pathway = experiment: Directed differentiation to ventricular cardiomyocytes with Wnt inhibition; assay type: cell-based, human
Source text: (§1) As detailed in the following examples, cardiac differentiation was initiated by formation of embryoid bodies (EBs) in suspension culture from hESCs as exemplary stem cells, maintained in feeder-free, serum-free culture. […] In the first phase of the differentiation process (Stage 1; days 2-4.5), the cells were differentiated into primitive streak-mesendoderm and subsequently to cardiac mesoderm by the combinatorial activation of the BMP and Nodal signaling pathways. In the second phase (Stage 2; days 4.5-8) the inhibition of the Wnt/β-catenin pathway by the small molecule IWR-1^29 enhanced the differentiation of the cardiac progenitors to the ventricular cardiomyocyte lineage.
For directed cell differentiation, undifferentiated hPSCs were digested into smaller clusters using Dispase (STEMCELL Technologies; 1 mg/ml for 8 minutes at 37° C.) and seeded onto Matrigel™-coated plates at 3×10^4 cells/ml in mTeSR™ 1 medium for 4 days until there was about 80-90% confluence on D0. To initiate cardiac differentiation, hPSCs were digested into single cell suspensions using Accutase (Invitrogen) and cultured in mTeSR™ 1 medium with Matrigel™ (40 μg/ml) with BMP-4 (1 ng/ml, Invitrogen) and Rho kinase inhibitor (ROCK) Inhibitor (10 μM; R&D) under a hypoxic condition with 5% O2. […] Cardiac mesodermal cells developed into functional contracting clusters could be detected as early as day 8. […]

hPSC = details: cited from earlier work
hESCs = experiment: Embryoid body formation from dissociated hESCs; assay type: cell-based, human; details: EB formation in suspension culture
Source text: as §1

hESC-VCMs = experiment: Patch-clamp AP recording and confocal Ca2+ imaging of hESC-VCMs; assay type: cell-based, human
Method: The electrophysiological experiments disclosed in the Examples were performed using the whole-cell patch-clamp technique as previously described.^65-67 To profile chamber-specific subtypes of the hPSC-CMs, action potentials of the myocytes were randomly probed at 37° C. with the patch-clamp technique using an EPC-10 amplifier and Pulse software (Heka Elektronik, Germany), with the current-clamp mode (0.1-0.5 nA for 1-5 ms) under the whole-cell configuration applied. The hPSC-CMs were categorized into nodal-, atrial- or ventricular-like, as previously described.^62,65,66 Voltage-clamp recordings of ionic currents were performed using an automated parallel patch-clamp system (PatchXpress 7000A, Molecular Devices) using standard electrophysiological and pharmacological protocols for isolating the ionic component of interest.
Intracellular Ca^2+ ([Ca^2+]i) transients were imaged by a spinning disc laser confocal microscope (PerkinElmer) on hPSC-CMs loaded with 1.5 μM X-Rhod-1 (Invitrogen) as previously described^66. After dye loading, experiments were performed at 37° C. in Tyrode's solution containing: 140 mM NaCl, 5 mM KCl, 1 mM MgCl2, 1.25 mM CaCl2, 10 mM HEPES and 10 mM D-glucose at pH 7.4. […] The amplitudes of E[Ca^2+]i are presented as the background corrected pseudo ratio (ΔF/F)=(F−Fbase)/(Fbase−B) where Fbase and F is the measured fluorescence intensity before and after stimulation, respectively, and B is the average background signal from areas adjacent to the targeted cell. The transients rise (Vupstroke) and the transients decay (Vdecay) were subsequently calculated and analyzed.
Initially, electrophysiological profiles were obtained and analyzed from patch-clamp recordings and Ca^2+-imaging performed on 30- to 50-day-old single cells isolated from cardiogenic EBs.

## OO [H2O2, hydrogen peroxide]
HES2-VCMs
  JC-1 orange/green intensity ratio: 0.410

## O=C(Nc1cccc2cccnc12)c1ccc(N2C(=O)[C@@H]3[C@H](C2=O)[C@@H]2C=C[C@H]3C2)cc1 [IWR-1]
Wnt/β-catenin pathway; Stage 2, days 4.5-8
  differentiation of cardiac progenitors to the ventricular cardiomyocyte lineage: enhanced
Wnt/β-catenin pathway; timely inhibition of Wnt/β-catenin pathway
  heterogeneity of the hESC-derived cardiomyocytes: reduced

## COc1ccc(CCC(=O)Nc2nc3ccc(Cl)cc3s2)cc1OC [KY02111]
hPSC; about 4.2×10^6 hPSC-CM from about 6×10^6 seeded per well
  hPSC-CM per hPSC: 0.7 hPSC-CM per hPSC
hPSC; serum- and xeno-free, four hiPSC lines, by inhibiting WNT signaling
  yield of CM from hPSC differentiation: up to 98%

## Cc1ccc2c(c1)C(=O)C1(O)CCN(c3ccccc3)C1=N2 (stereo not shown) [blebbistatin]
hESCs
  EB formation efficiency: significantly increased
  dissociation-induced apoptosis of hESCs: inhibited

## Cn1c(=O)c2c(ncn2C)n(C)c1=O [caffeine]
hESC-VCMs
  caffeine-induced Ca2+ flux (functional sarcoplasmic reticulum): observed

## CC(C)NCC(O)c1ccc(O)c(O)c1 (stereo not shown) [isoproterenol]
hESC-VCMs; 30- to 50-day-old single cells, β-adrenergic stimulation
  chronotropic response (spontaneous AP and Ca2+ transient firings): positive chronotropic response
hESC-VCMs; β-adrenergic stimulation, p>0.05
  Ca2+ transient amplitude (ionotropic response): remained unchanged

From patent US10888588B2, “Directed cardiomyocyte differentiation and ventricular specification of stem cells” (ICAHN SCHOOL OF MEDICINE AT MOUNT SINAI, priority 2013, dated 2021)
